In ChEMBL document CHEMBL5365548, “Discovery of Pyrrolo[2,3-c]pyridines as Potent and Reversible LSD1 Inhibitors” (ACS Med Chem Lett, 2023):
Each block holds one compound with its values, some of them ahead of it.

Columns and labels:
[1] = molecular target: Lysine-specific histone demethylase 1A (Homo sapiens, UniProt O60341); experiment: Inhibition of human recombinant LSD1 expressed in Escherichia coli using H3K4me2 peptide as substrate incubated for 60 mins by AlphaLISA assay
MOLM-13 = experiment: Antiproliferative activity against human MOLM-13 cells assessed as cell growth inhibition incubated for 7 days by WST-8 assay; assay type: functional, cell-based; details: MOLM-13, 168 h
MV4-11 = experiment: Antiproliferative activity against human MV4-11 cells assessed as cell growth inhibition incubated for 10 days by WST-8 assay; assay type: functional, cell-based; details: MV4-11, 240 h
NCI-H1417 = experiment: Antiproliferative activity against human NCI-H1417 cells assessed as cell growth inhibition incubated for 10 days by WST-8 assay; assay type: functional, cell-based; details: NCI-H1417, 240 h
[2] = Microsomal stability in mouse liver microsome assessed as half life measured upto 60 mins by LC-MS/MS analysis; assay type: ADME; details: liver microsomes
[3] = Microsomal stability in rat liver microsome assessed as half life measured upto 60 mins by LC-MS/MS analysis; assay type: ADME; details: liver microsomes
[4] = Microsomal stability in dog liver microsome assessed as half life measured upto 60 mins by LC-MS/MS analysis; assay type: ADME, Canis lupus familiaris; details: liver microsomes
[5] = Microsomal stability in human liver microsome assessed as half life measured upto 60 mins by LC-MS/MS analysis; assay type: ADME; details: liver microsomes

IC50 [1]: 47.9 nM
Compound: CC(C)(C)c1ccc(-c2ncc3c(ccn3CC3CCNCC3)c2-c2ccc(C#N)cc2)cc1

IC50 [1]: 53.8 nM
Compound: COC(=O)Nc1ccc(-c2ncc3c(ccn3CC3CCNCC3)c2-c2ccc(C#N)cc2)cc1

IC50 [1]: 34.5 nM
Compound: Cc1ccc(-c2ncc3c(ccn3CC3CCNCC3)c2-c2ccc(C#N)cc2)cc1

IC50 [1]: 6.5 nM
Compound: Cn1ccc2cc(-c3ncc4c(ccn4CC4CCNCC4)c3-c3ccc(C#N)cc3)ccc21

IC50 [1]: 69.8 nM
Compound: Cc1ccc(-c2ncc3c(ccn3CC3CCNCC3)c2-c2ccc(C#N)cc2)cn1

IC50 [1]: 80 nM
Compound: Cc1ccc(-c2ncc3c(ccn3C[C@@H]3CCNC3)c2-c2ccc(C#N)cc2)cc1

IC50 [1]: 12.9 nM
IC50 (MOLM-13): 62 nM
IC50 (MV4-11): 4.1 nM
IC50 (NCI-H1417): 11 nM
Compound: Cn1ncc2cc(-c3ncc4c(ccn4CC4CCNCC4)c3-c3ccc(C#N)cc3)ccc21

IC50 [1]: 16.5 nM
Compound: COC(C)(C)c1ccc(-c2ncc3c(ccn3CC3CCNCC3)c2-c2ccc(C#N)cc2)cc1

IC50 [1]: 146 nM
Compound: CS(=O)(=O)c1ccc(-c2ncc3c(ccn3CC3CCNCC3)c2-c2ccc(C#N)cc2)cc1

IC50 [1]: 21.1 nM
Compound: CC(C)(O)c1ccc(-c2ncc3c(ccn3CC3CCNCC3)c2-c2ccc(C#N)cc2)cc1

IC50 [1]: 354 nM
Compound: N#Cc1ccc(-c2c(-c3ccc(N)cc3)ncc3c2ccn3CC2CCNCC2)cc1

IC50 [1]: 15.4 nM
Compound: Cn1cnc2cc(-c3ncc4c(ccn4CC4CCNCC4)c3-c3ccc(C#N)cc3)ccc21

IC50 [1]: 46.1 nM
Compound: CC(C)c1ccc(-c2ncc3c(ccn3CC3CCNCC3)c2-c2ccc(C#N)cc2)cc1

IC50 [1]: 58.5 nM
Compound: C=C(C)c1ccc(-c2ncc3c(ccn3CC3CCNCC3)c2-c2ccc(C#N)cc2)cc1

IC50 [1]: 24.3 nM
Compound: Cc1ccc(-c2ncc3c(ccn3CC3CCNCC3)c2-c2ccc(C#N)cc2)cc1C

IC50 [1]: 9.4 nM
Compound: CN(C)c1ccc(-c2ncc3c(ccn3CC3CCNCC3)c2-c2ccc(C#N)cc2)cc1

Further lines, the compound ahead of its results:

Compound: Cn1ncc2cc(-c3ncc4c(ccn4CC4(C)CCNCC4)c3-c3ccc(C#N)cc3)ccc21
IC50 [1]: 4.3 nM
IC50 (MOLM-13): 126 nM
IC50 (MV4-11): 3.2 nM
IC50 (NCI-H1417): 5.7 nM

Compound: C/C(=N\NC(=O)c1cccc(S(=O)(=O)N2CCN(C)CC2)c1)c1cc(Cl)ccc1O [SECLIDEMSTAT]
IC50 [1]: 26.2 nM

Compound: CN1CCOc2cc(-c3ncc4c(ccn4CC4CCNCC4)c3-c3ccc(C#N)c(F)c3)ccc21
IC50 [1]: 4.3 nM
IC50 (MOLM-13): 58 nM
IC50 (MV4-11): 1.7 nM
IC50 (NCI-H1417): 2.7 nM
half-life [2]: < 10 min
half-life [3]: 42 min
half-life [4]: 37 min
half-life [5]: < 10 min

Compound: Cn1cc(-c2ncc3c(ccn3CC3CCNCC3)c2-c2ccc(C#N)cc2)cn1
IC50 [1]: > 1000 nM

Compound: Cn1ncc2cc(-c3ncc4c(ccn4CC4(C)CCNCC4)c3-c3ccc(C#N)c(F)c3)ccc21
IC50 [1]: 3.1 nM
IC50 (MOLM-13): 31 nM
IC50 (MV4-11): 0.6 nM
IC50 (NCI-H1417): 1.1 nM
half-life [2]: > 60 min
half-life [3]: > 60 min
half-life [4]: > 60 min
half-life [5]: > 60 min

Compound: CCC1(Cn2ccc3c(-c4ccc(C#N)cc4)c(-c4ccc5c(cnn5C)c4)ncc32)CCNCC1
IC50 [1]: 121 nM

Compound: Cc1cc(-c2c(-c3ccc4c(cnn4C)c3)ncc3c2ccn3CC2CCNCC2)ccc1C#N
IC50 [1]: 156 nM

Compound: N#Cc1ccc(-c2c(-c3ccc4[nH]ncc4c3)ncc3c2ccn3CC2CCNCC2)cc1
IC50 [1]: 94.3 nM

Compound: Cc1cc(C#N)ccc1-c1c(-c2ccc3c(cnn3C)c2)ncc2c1ccn2CC1CCNCC1
IC50 [1]: 215 nM

Compound: CN1CCOc2cc(-c3ncc4c(ccn4CC4CCNCC4)c3-c3ccc(C#N)cc3)ccc21
IC50 [1]: 4.6 nM
IC50 (MOLM-13): 170 nM
IC50 (MV4-11): 2.9 nM
IC50 (NCI-H1417): 9.3 nM

Compound: Cn1ncc2cc(-c3ncc4c(ccn4CCCCN)c3-c3ccc(C#N)cc3)ccc21
IC50 [1]: 12.4 nM

Compound: Cn1ncc2cc(-c3ncc4c(ccn4CC4CCNCC4)c3-c3ccc(C#N)cc3F)ccc21
IC50 [1]: 17.5 nM

Compound: Cn1ncc2cc(-c3ncc4c(ccn4CC4CCNCC4)c3-c3ccc(C#N)c(F)c3)ccc21
IC50 [1]: 3.9 nM
IC50 (MOLM-13): 316 nM
IC50 (MV4-11): 2.7 nM
IC50 (NCI-H1417): 7.3 nM
half-life [2]: > 60 min
half-life [3]: > 60 min
half-life [4]: > 60 min
half-life [5]: > 60 min

Compound: CN1CCOc2cc(-c3ncc4c(ccn4CC4(C)CCNCC4)c3-c3ccc(C#N)c(F)c3)ccc21
IC50 [1]: 1.4 nM
IC50 (MOLM-13): 182 nM
IC50 (MV4-11): 0.7 nM
IC50 (NCI-H1417): 2.3 nM
half-life [2]: < 10 min
half-life [3]: 36 min
half-life [4]: 35 min
half-life [5]: < 10 min

Compound: CNC1CCC(Cn2ccc3c(-c4ccc(C#N)c(F)c4)c(-c4ccc5c(cnn5C)c4)ncc32)CC1 (stereo not drawn)
IC50 [1]: 229 nM

Compound: CN1CCOc2cc(-c3ncc4c(ccn4CC4(C)CCNCC4)c3-c3ccc(C#N)cc3)ccc21
IC50 [1]: 1.3 nM
IC50 (MOLM-13): 130 nM
IC50 (MV4-11): 1.5 nM
IC50 (NCI-H1417): 3.7 nM

Compound: Cn1ncc2cc(-c3ncc4c(ccn4Cc4c[nH]cn4)c3-c3ccc(C#N)c(F)c3)ccc21
IC50 [1]: > 10000 nM

Compound: CNCCCn1ccc2c(-c3ccc(C#N)cc3)c(-c3ccc4c(cnn4C)c3)ncc21
IC50 [1]: 42.8 nM

Compound: Cc1ccc(-c2ncc(OC[C@@H]3CCNC3)cc2-c2ccc(C#N)cc2)cc1
IC50 [1]: 130 nM
IC50 (MOLM-13): 613 nM
IC50 (MV4-11): 122 nM
IC50 (NCI-H1417): 213 nM

Compound: Cn1ncc2cc(-c3ncc4c(ccn4Cc4cccnc4)c3-c3ccc(C#N)c(F)c3)ccc21
IC50 [1]: > 10000 nM

Compound: Cn1ncc2cc(-c3ncc4[nH]ccc4c3-c3ccc(C#N)cc3)ccc21
IC50 [1]: 3710 nM

Compound: Cn1ncc2cc(-c3ncc4c(ccn4C[C@@H]4CCNC4)c3-c3ccc(C#N)c(F)c3)ccc21
IC50 [1]: 3.7 nM
half-life [2]: > 60 min
half-life [3]: > 60 min
half-life [4]: > 60 min
half-life [5]: > 60 min

Compound: Cn1ccc2cc(-c3ncc4c(ccn4CC4CCNCC4)c3-c3ccc(C#N)cc3)cnc21
IC50 [1]: 5.1 nM

Compound: Cn1ncc2cc(-c3ncc4c(ccn4C[C@@H]4CCCNC4)c3-c3ccc(C#N)c(F)c3)ccc21
IC50 [1]: 3.5 nM

Compound: Cn1ncc2cc(-c3ncc4c(ccn4CC4CCNCC4)c3-c3ccc(C(N)=O)cc3)ccc21
IC50 [1]: 6250 nM
